Entries after “also recorded” stand apart in the source; their conditions may differ. Where two headings read alike, the source gives them in different places.
How the values were obtained:
[1] = molecular target: T1, 5-HT1A receptor (Rattus norvegicus, UniProt P19327); experiment: Antagonist activity for the 5-HT1A receptor, [35S]GTPγS assay in hippocampal homogenates; assay type: biochemical; settings: 8-OH-DPAT 1.4 × 10^−7 M, mean ± SEM; for EC50 / EC50 (nM ± SEM): antagonistic activity
T1 construct: Hippocampal homogenates (15 μg/mL) were added to each tube as the 5-HT1A receptor source; from tissue; host or cells: rat hippocampus (male Sprague-Dawley), membrane homogenate
T1 sequence (P19327 1-422): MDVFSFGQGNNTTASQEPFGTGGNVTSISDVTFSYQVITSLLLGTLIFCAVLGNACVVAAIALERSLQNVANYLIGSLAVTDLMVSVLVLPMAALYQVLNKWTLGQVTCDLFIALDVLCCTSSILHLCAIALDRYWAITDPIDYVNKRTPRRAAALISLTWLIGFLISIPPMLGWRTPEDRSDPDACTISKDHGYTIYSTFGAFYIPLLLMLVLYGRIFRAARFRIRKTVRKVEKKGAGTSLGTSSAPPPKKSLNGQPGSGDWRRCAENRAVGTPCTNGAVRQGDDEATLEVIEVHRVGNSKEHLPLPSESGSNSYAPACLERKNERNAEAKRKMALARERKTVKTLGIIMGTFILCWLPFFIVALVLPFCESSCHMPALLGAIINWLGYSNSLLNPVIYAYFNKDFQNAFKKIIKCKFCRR
Procedure: Male Sprague–Dawley rats were decapitated, their brains removed, and placed on ice. Hippocampi were dissected and homogenized with a glass homogenizer in 30 vol. ice-cold TED buffer (50 mM Tris-HCl, 1 mM EDTA, 1mM dithiotheritol, pH 7.4). Next, the homogenate was centrifuged at 21,000× g for 30 min at 4 °C. […] The suspension was centrifuged again at 21,000× g for 30 min at 4 °C. The pellet was resuspended in 30 vol. TED buffer (pH 7.4) and the centrifugation step was repeated. The final pellet was suspended in 10 vol 50 mM Tris-HCl (pH 7.4) and stored at −80 °C until use.
Serial dilutions of the compounds tested (10^−10–10^−5 M) were incubated in triplicate with 0.8 nM [^35S]GTPγS in assay buffer (50 mM Tris-HCl, pH = 7.4, 1 mM EGTA, 3 mM MgCl2, 100 mM NaCl, 30 µM GDP) and 8-OH-DPAT (final concentration 1.4 × 10^−7 M) in the final assay volume of 250 µL. Hippocampal homogenates (15 μg/mL) were added to each tube as the 5-HT1A receptor source. […] Non-specific binding was determined with 10 µM of unlabeled GTPγS. […] Next, 96-well Unifilter® Plates (Perkin Elmer, Waltham, MA, USA) were presoaked for 1 h with 50 mM Tris-HCl (pH = 7.4) before harvesting. The reaction was terminated by vacuum filtration onto filter plates with the FilterMate Harvester® (Perkin Elmer, Waltham, MA, USA). The samples were then rapidly washed with 2 mL of 50 mM Tris-HCl (pH = 7.4) buffer. Filter plates were dried for 2 h at 50 °C. After drying, 45 µL of EcoScint-20 scintillant (Perkin Elmer) was added to every well. Radioactivity was counted in a Trilux MicroBeta^2 counter (Perkin Elmer). Data were analyzed with GraphPad Prism 5.0 software (GraphPad Software, San Diego, CA, USA, www.graphpad.com). Curves were fitted with a one-site non-linear regression model. Efficacy (Emax) and half maximal inhibitory concentration (IC50) were calculated from the Cheng–Prusoff equation and expressed as means ± SEM.

[2] = molecular target: T2, 5-HT2A receptor (Rattus norvegicus, UniProt P14842); experiment: 5-HT2A competition binding assay, [3H]ketanserin, frontal cortex homogenates; settings: [3H]ketanserin 1 nM
T2 construct: from tissue; host or cells: rat frontal cortex (male SD), membrane homogenate
T2 sequence (P14842 whole entry): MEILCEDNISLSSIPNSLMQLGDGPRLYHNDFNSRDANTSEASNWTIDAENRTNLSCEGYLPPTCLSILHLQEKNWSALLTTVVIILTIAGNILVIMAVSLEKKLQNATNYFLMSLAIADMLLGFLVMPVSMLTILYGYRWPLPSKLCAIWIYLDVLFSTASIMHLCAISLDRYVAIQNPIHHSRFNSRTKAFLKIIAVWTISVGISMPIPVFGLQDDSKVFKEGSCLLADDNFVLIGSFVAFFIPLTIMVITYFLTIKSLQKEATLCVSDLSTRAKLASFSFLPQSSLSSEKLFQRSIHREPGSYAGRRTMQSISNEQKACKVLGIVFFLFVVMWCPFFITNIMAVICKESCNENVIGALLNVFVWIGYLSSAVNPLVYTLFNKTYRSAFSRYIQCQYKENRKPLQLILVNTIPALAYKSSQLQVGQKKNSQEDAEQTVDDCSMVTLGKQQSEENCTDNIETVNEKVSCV
Procedure: Male SD rats were decapitated and their brains removed and placed on ice. Frontal cortices were homogenized with a glass homogenizer in 30 vol ice-cold homogenization buffer (50 mM Tris-HCl. 1 mM EDTA. 5 mM MgCl2. pH 7.4). Next, the homogenate was centrifuged at 20,000× g for 15 min at 4 °C. […] The suspension was again centrifuged at 20,000× g for 15 min at 4 °C. The pellet was resuspended in 10 vol. 50 mM Tris-HCl (pH 7.4) and the centrifugation step was repeated. The final pellet was suspended in 10 vol 50 mM Tris-HCl (pH 7.4) and stored at −80 °C.
Non-specific binding was determined in the presence of 10 μM mianserin. After incubation, the reaction mixture was deposited onto UniFilter-96 GF/B plates with the aid of a FilterMate-96 Harvester. Filter plates were presoaked beforehand with 0.4% PEI for 1 h. Next, each filter well was washed with 1.75 mL of 50 mM Tris-HCl (pH 7.4) and left to dry on a heating block set to 50 °C for 2 h. Then 45 µL of Microscint-20 scintillation fluid was added to each filter well and left to equilibrate overnight. Filter-bound radioactivity was counted in a MicroBeta^2 Microplate Counter. Binding curves were fitted with one site non-linear regression. Affinity was presented as the inhibitory constant (pKi ± SEM and Ki ± SEM) from two or three separate experiments.

[3] = read-out: Ki (nM ± SEM) (converted)
[4] = read-out: pKi (M ± SEM) (converted)

SMILES	melting point	IC50 [1]	EC50 [1]	Ki [2, 3]	Ki [2, 4]	pIC50 ± SEM [1]	EC50 (nM ± SEM) [1]
Cc1cc(OCCCCCN2CCN(c3ccccc3Br)CC2)c2c(C)cc(=O)oc2c1 [Compound 1f, 5-(5-(4-(2-bromophenyl)piperazin-1-yl)pentyloxy)-4,7-dimethyl-2H-chromen-2-one]	143 to 144 °C	20 µM	20900 nM	1550 ± 323 nM			
COc1cccc(N2CCN(CCOc3ccc4c(C)cc(=O)oc4c3C(C)=O)CC2)c1 [Compound 6c, 8-acetyl-7-(2-[4-(3-methoxyphenyl)piperazin-1-yl]ethoxy)-4-methylchromen-2-one]	122 to 124 °C	50.1 µM	47200 nM	920 ± 160 nM	933 nM		
CC(=O)c1c(OCCCCCN2CCN(c3cc(C)ccc3C)CC2)ccc2c(C)cc(=O)oc12 [Compound 5d, 8-acetyl-7-(5-[4-(2,5-dimethylphenyl)piperazin-1-yl]penthoxy)-4-methylchromen-2-one]	92 to 94 °C	12.6 µM	12900 nM	1500 ± 279 nM			
COc1ccccc1N1CCN(CCOc2c(C(C)=O)c(C)cc3oc(=O)cc(C)c23)CC1 [Compound 4a, 6-acetyl-5-(2-(4-(2-methoxyphenyl)piperazin-1-yl)ethoxy)-4,7-dimethyl-2H-chromen-2-one]	132 to 134 °C	0.1 µM	91.6 ± 13.3 nM	5210 ± 1250 nM			
CC(=O)c1c(OCCCCCN2CCN(c3ccccc3C#N)CC2)ccc2c(C)cc(=O)oc12 [Compound 5j, 8-acetyl-7-(5-[4-(2-cyanophenyl)piperazin-1-yl]penthoxy)-4-methylchromen-2-one]	59 to 61 °C	15.8 µM	13900 nM	2550 ± 765 nM			
CC(=O)c1c(OCCCCCN2CCN(c3ccccc3F)CC2)ccc2c(C)cc(=O)oc12 [Compound 5b, 8-acetyl-7-(5-[4-(2-fluorophenyl)piperazin-1-yl]penthoxy)-4-methylchromen-2-one]	95 to 97 °C	0.0794 µM	82 ± 13.4 nM	122 ± 43 nM			
COc1cccc(N2CCN(CCCCCOc3cc(C)cc4oc(=O)cc(C)c34)CC2)c1 [Compound 1c, 5-(5-(4-(3-methoxyphenyl)piperazin-1-yl)pentyloxy)-4,7-dimethyl-2H-chromen-2-one]	103 to 105 °C	1.58 µM	1700 ± 358 nM	610 ± 139 nM			
CC(=O)c1c(OCCCCCN2CCN(c3cccc(Cl)c3Cl)CC2)ccc2c(C)cc(=O)oc12 [Compound 5i, 8-acetyl-7-(5-[4-(2,3-dichlorophenyl)piperazin-1-yl]penthoxy)-4-methylchromen-2-one]	137 to 139 °C	63.1 µM	55900 nM	51 ± 8.3 nM	63.1 nM		
CC(=O)c1c(C)cc2oc(=O)cc(C)c2c1OCCCCCN1CCN(c2cc(C)ccc2C)CC1 [Compound 3d, 6-acetyl-5-(5-(4-(2,5-dimethylphenyl)piperazin-1-yl)pentyloxy)-4,7-dimethyl-2H-chromen-2-one]	97 to 99 °C	10 µM	9430 ± 1040 nM	1940 ± 388 nM			
CC(=O)c1c(OCCCCCN2CCN(c3cccc(F)c3)CC2)ccc2c(C)cc(=O)oc12 [Compound 5e, 8-acetyl-7-(5-[4-(3-fluorophenyl)piperazin-1-yl]penthoxy)-4-methylchromen-2-one]	117 to 119 °C	31.6 µM	33900 nM	2110 ± 420 nM			
CC(=O)c1c(C)cc2oc(=O)cc(C)c2c1OCCCCCN1CCN(c2ccccc2F)CC1 [Compound 3b, 6-acetyl-5-(5-(4-(2-fluorophenyl)piperazin-1-yl)pentyloxy)-4,7-dimethyl-2H-chromen-2-one]	137 to 139 °C	20 µM	19200 nM	1220 ± 166 nM	1170 nM		
CC(=O)c1c(C)cc2oc(=O)cc(C)c2c1OCCN1CCN(c2cccc(F)c2)CC1 [Compound 4e, 6-acetyl-5-(2-(4-(3-fluorophenyl)piperazin-1-yl)ethoxy)-4,7-dimethyl-2H-chromen-2-one]	135 to 136 °C	0.501 µM	527 ± 191 nM	3860 ± 810 nM			
CC(=O)c1c(C)cc2oc(=O)cc(C)c2c1OCCCCCN1CCN(c2cc(C)cc(C)c2)CC1 [Compound 3h, 6-acetyl-5-(5-(4-(3,5-dimethylphenyl)piperazin-1-yl)pentyloxy)-4,7-dimethyl-2H-chromen-2-one]	100 to 102 °C	1.26 µM	1240 ± 112 nM	1800 ± 521 nM			
CC(=O)c1c(OCCCCCN2CCN(c3cccc(Br)c3)CC2)ccc2c(C)cc(=O)oc12 [Compound 5g, 8-acetyl-7-(5-[4-(3-bromohenyl)piperazin-1-yl]penthoxy)-4-methylchromen-2-one]	119 to 121 °C	25.1 µM	21500 nM	81 ± 19 nM			
Cc1cc(C)cc(N2CCN(CCCCCOc3cc(C)cc4oc(=O)cc(C)c34)CC2)c1 [Compound 1h, 5-(5-(4-(3,5-dimethylphenyl)piperazin-1-yl)pentyloxy)-4,7-dimethyl-2H-chromen-2-one]	104 to 106 °C	200 µM	198000 nM	1820 ± 636 nM			
Cc1cc(OCCN2CCN(c3ccccc3Br)CC2)c2c(C)cc(=O)oc2c1 [Compound 2f, 5-(2-(4-(2-bromophenyl)piperazin-1-yl)ethoxy)-4,7-dimethyl-2H-chromen-2-one]	129 to 130 °C			9600 ± 2840 nM		no activity	did not show any activity; also recorded: no activity
Cc1cc(C)cc(N2CCN(CCOc3cc(C)cc4oc(=O)cc(C)c34)CC2)c1 [Compound 2h, 5-(2-(4-(3,5-dimethylphenyl)piperazin-1-yl)ethoxy)-4,7-dimethyl-2H-chromen-2-one]	149 to 150 °C			2920 ± 992 nM		no activity	did not show any activity; also recorded: no activity
COc1ccccc1N1CCN(CCCCCOc2cc(C)cc3oc(=O)cc(C)c23)CC1 [Compound 1a, 5-(5-(4-(2-methoxyphenyl)piperazin-1-yl)pentyloxy)-4,7-dimethyl-2H-chromen-2-one]	66 to 68 °C	0.0316 µM	29.4 ± 7.3 nM	776 ± 187 nM	644 nM		
CC(=O)c1c(OCCN2CCN(c3cccc(F)c3)CC2)ccc2c(C)cc(=O)oc12 [Compound 6e, 8-acetyl-7-(2-[4-(3-fluorophenyl)piperazin-1-yl]ethoxy)-4-methylchromen-2-one]	86 to 88 °C	100 µM	98900 nM	1670 ± 274 nM			

From article PMC7996328, “Design, Synthesis, and Biological Evaluation of a Series of 5- and 7-Hydroxycoumarin Derivatives as 5-HT1A Serotonin Receptor Antagonists” (Pharmaceuticals, 2021)
